Laboratory results taken from the OligoGym collection.
Several values for one entry are separate records, joined by “and”; a condition that tells them apart may be missing. Equal entries are not always repeated. After the bases stand the sugars from the 5' end (letter, count) and the backbone: PS all phosphorothioate, else s phosphorothioate and o phosphodiester by linkage. Methylation of C is not given here. e = 2'-O-(2-methoxyethyl) (MOE); k = constrained ethyl (cEt); d = 2'-deoxy (DNA)

Molecular target: APOL1
Settings: ASO

For AATGTTTGCATTTGGG (sugars k4 d9 k3, PS), the target mRNA inhibition (A431, 0.0625 µM) was 95%, the target mRNA inhibition (A431, 0.25 µM) was 99% and 97% and the target mRNA inhibition (A431, 1 µM) was 100% and 98%.
For TCAATTTGTCAAGGCT (sugars k4 d9 k3, PS), the target mRNA inhibition (A431, 0.0625 µM) was 46% and 59%, the target mRNA inhibition (A431, 0.25 µM) was 78% and 83% and the target mRNA inhibition (A431, 1 µM) was 90% and 91%.
GTTCTAACTCTTGGGC (sugars k4 d9 k3, PS) was tested, and the target mRNA inhibition (A431, 0.0625 µM) was 74%, the target mRNA inhibition (A431, 0.25 µM) was 85% and the target mRNA inhibition (A431, 1 µM) was 92%.
“GGCATTCAGAATTTCC (sugars k2 d4 e3 k2 d5, PS)” gave a target mRNA inhibition (A431, 2 µM) of 97%.
In the case of “ACGCAATGCTGACTTG (sugars kkddddekekeddddd, PS)”, the target mRNA inhibition (A431, 0.0156 µM) was 6%, the target mRNA inhibition (A431, 0.0625 µM) was 23% and the target mRNA inhibition (A431, 0.25 µM) was 59%. For the same sequence, the target mRNA inhibition (A431, 1 µM) was 80% and the target mRNA inhibition (A431, 2 µM) was 92%.
Sequence TTGGTTCAAAAGCAGC (sugars k4 d9 k3, PS) has a target mRNA inhibition (A431, 0.0625 µM) of 72%, a target mRNA inhibition (A431, 0.25 µM) of 87% and a target mRNA inhibition (A431, 1 µM) of 92%.
With “GGCATTCAGAATTTCC (sugars kkddddkekekddddd, PS)” the target mRNA inhibition (A431, 2 µM) was 46%.
Sequence “GGAATTATGGAATTGC (sugars kkddddekekeddddd, PS)” has a target mRNA inhibition (A431, 0.0156 µM) of 23%, a target mRNA inhibition (A431, 0.0625 µM) of 62% and a target mRNA inhibition (A431, 0.25 µM) of 89%. The target mRNA inhibition (A431, 1 µM) was 97% and the target mRNA inhibition (A431, 2 µM) was 97%.
Work on “TATTTCTTGATGTGGT (sugars kkdddddkekeddddd, PS)” yielded a target mRNA inhibition (A431, 0.0156 µM) of 10%, a target mRNA inhibition (A431, 0.0625 µM) of 59% and a target mRNA inhibition (A431, 0.25 µM) of 87%. The target mRNA inhibition (A431, 1 µM) was 96% and the target mRNA inhibition (A431, 2 µM) was 99%.
In the case of “GTTCAAAAGCAGCATT (sugars kkkddddkekeddddd, PS)”, the target mRNA inhibition (A431, 2 µM) was 85%.
Sequence “TATTTCTTGATGTGGT (sugars k2 d4 e3 k2 d5, PS)” has a target mRNA inhibition (A431, 0.0156 µM) of 37%, a target mRNA inhibition (A431, 0.0625 µM) of 78% and a target mRNA inhibition (A431, 0.25 µM) of 94%. It also gave a target mRNA inhibition (A431, 1 µM) of 98% and a target mRNA inhibition (A431, 2 µM) of 99%.
For “GAAGATTGGCTCTGGC (sugars kkddddekekeddddd, PS)”, the target mRNA inhibition (A431, 2 µM) was 64%.
In the case of “TTGTAAGTGCAACCAA (sugars kkddddkekekddddd, PS)”, the target mRNA inhibition (A431, 2 µM) was 69%.
In the case of “ATTCTATTAGAGGGCT (sugars kkkddddkekekdddd, PS)”, the target mRNA inhibition (A431, 2 µM) was 37%.
With “GGTTCAAAAGCAGCAT (sugars k2 d4 e3 k2 d5, PS)” the target mRNA inhibition (A431, 0.0156 µM) was 21%, the target mRNA inhibition (A431, 0.0625 µM) was 60% and the target mRNA inhibition (A431, 0.25 µM) was 86%. It also gave a target mRNA inhibition (A431, 1 µM) of 94% and a target mRNA inhibition (A431, 2 µM) of 95%.
“ATCAGATGGGTACTTC (sugars kekddddeekkddddd, PS)” gave a target mRNA inhibition (A431, 2 µM) of 91%.
“CACATCATTGGGTTAT (sugars kkkddddkekekdddd, PS)” was tested, and the target mRNA inhibition (A431, 2 µM) was 58%.
“ATCAGATGGGTACTTC (sugars kkddddkekekkdddd, PS)” gave a target mRNA inhibition (A431, 2 µM) of 45%.
Sequence “TCTATTAGAGGGCTAG (sugars kkkddddkekekdddd, PS)” has a target mRNA inhibition (A431, 2 µM) of 23%.
“ACGCAATGCTGACTTG (sugars kkkddddkdkdkdddd, PS)” was tested, and the target mRNA inhibition (A431, 2 µM) was 70%.
For TGTGATGTGGGACTTG (sugars k4 d9 k3, PS), the target mRNA inhibition (A431, 0.0625 µM) was 32%, the target mRNA inhibition (A431, 0.25 µM) was 70% and the target mRNA inhibition (A431, 1 µM) was 84%.
In the case of “GTTCAAAAGCAGCATT (sugars kdddddkekekddddd, PS)”, the target mRNA inhibition (A431, 2 µM) was 79%.
In the case of “GTTCTAACTCTTGGGC (sugars kkddddkdkdkddddd, PS)”, the target mRNA inhibition (A431, 0.0156 µM) was 3%, the target mRNA inhibition (A431, 0.0625 µM) was 28% and the target mRNA inhibition (A431, 0.25 µM) was 59%. For the same sequence, the target mRNA inhibition (A431, 1 µM) was 75% and the target mRNA inhibition (A431, 2 µM) was 90%.
“TTATGAAATTATTGGT (sugars kkddddekekeddddd, PS)” was tested, and the target mRNA inhibition (A431, 2 µM) was 74%.
With “TTATATTTGATCCTCA (sugars kkdddddkekeddddd, PS)” the target mRNA inhibition (A431, 0.0156 µM) was 7%, the target mRNA inhibition (A431, 0.0625 µM) was 38% and the target mRNA inhibition (A431, 0.25 µM) was 74%. The target mRNA inhibition (A431, 1 µM) was 92% and the target mRNA inhibition (A431, 2 µM) was 96%.
With “TATATTTGATCCTCAA (sugars kkddddkekekkdddd, PS)” the target mRNA inhibition (A431, 2 µM) was 77%.
“ATTCTATTAGAGGGCT (sugars kkkddddkekeddddd, PS)” gave a target mRNA inhibition (A431, 2 µM) of 73%.
“GTTATATTTGATCCTC (sugars k3 d4 k3 e1 d5, PS)” was tested, and the target mRNA inhibition (A431, 2 µM) was 98%.
“AAGATTGGCTCTGGCT (sugars kkkddddkekekdddd, PS)” was tested, and the target mRNA inhibition (A431, 2 µM) was 23%.
“AGTATTGTTTTTGTGG (sugars kkddddkekekkdddd, PS)” was tested, and the target mRNA inhibition (A431, 2 µM) was 66%.
Sequence “CTTTAAACTCAGGTGA (sugars kkkddddkekekdddd, PS)” has a target mRNA inhibition (A431, 2 µM) of 40%.
With “TCTCATGGTACAGGAG (sugars kddddkekekeddddd, PS)” the target mRNA inhibition (A431, 2 µM) was 55%.
Sequence “TTCTCATGGTACAGGA (sugars k2 d4 e3 k2 d5, PS)” has a target mRNA inhibition (A431, 2 µM) of 86%.
For “GGTTATGAAATTATTG (sugars kkkddddkekeddddd, PS)”, the target mRNA inhibition (A431, 2 µM) was 88%.
GTTATGAAATTATTGG (sugars k4 d9 k3, PS) was tested, and the target mRNA inhibition (A431, 0.0625 µM) was 58% and 42%, the target mRNA inhibition (A431, 0.25 µM) was 87% and 73% and the target mRNA inhibition (A431, 1 µM) was 95% and 87% and 97%.
“CGCAATGCTGACTTGG (sugars k3 d4 k3 e1 d5, PS)” was tested, and the target mRNA inhibition (A431, 0.0156 µM) was 34%, the target mRNA inhibition (A431, 0.04 µM) was 50% and the target mRNA inhibition (A431, 0.0625 µM) was 61%. The target mRNA inhibition (A431, 0.25 µM) was 83%, the target mRNA inhibition (A431, 1 µM) was 92% and the target mRNA inhibition (A431, 2 µM) was 94%.
In the case of “ATGCTAATTTTCTGAC (sugars kkkddddkekekdddd, PS)”, the target mRNA inhibition (A431, 0.0156 µM) was 26%, the target mRNA inhibition (A431, 0.0625 µM) was 46% and the target mRNA inhibition (A431, 0.25 µM) was 68%. The target mRNA inhibition (A431, 1 µM) was 88% and the target mRNA inhibition (A431, 2 µM) was 95%.
In the case of “CTAATTTTCTGACTGT (sugars k2 d4 e3 k2 d5, PS)”, the target mRNA inhibition (A431, 2 µM) was 83%.
“TGTATTTCTTGATGTG (sugars k3 d4 k3 e1 d5, PS)” gave a target mRNA inhibition (A431, 2 µM) of 87%.
Sequence TAATTCTATTAGAGGG (sugars k4 d9 k3, PS) has a target mRNA inhibition (A431, 0.0625 µM) of 17%, a target mRNA inhibition (A431, 0.25 µM) of 45% and a target mRNA inhibition (A431, 1 µM) of 69%.
In the case of “TAAGTATTGCCAGCTA (sugars k3 d4 k3 e1 d5, PS)”, the target mRNA inhibition (A431, 2 µM) was 65%.
“ATCAGATGGGTACTTC (sugars kkkddddkdkdkdddd, PS)” was tested, and the target mRNA inhibition (A431, 2 µM) was 79%.
Work on “GGCAGTTTTGTAAGTG (sugars kkddddkekekddddd, PS)” yielded a target mRNA inhibition (A431, 2 µM) of 65%.
With “GTTATATTTGATCCTC (sugars kkdddddkekeddddd, PS)” the target mRNA inhibition (A431, 2 µM) was 97%.
Sequence “GTTATATTTGATCCTC (sugars kkddddkekekkdddd, PS)” has a target mRNA inhibition (A431, 2 µM) of 43%.
GTTGTCCAGAGCTTTA (sugars k4 d9 k3, PS) gave a target mRNA inhibition (A431, 0.0625 µM) of 56%, a target mRNA inhibition (A431, 0.25 µM) of 72% and a target mRNA inhibition (A431, 1 µM) of 79%.
GGTTCAAAAGCAGCAT (sugars k4 d9 k3, PS) gave a target mRNA inhibition (A431, 0.0625 µM) of 78%, a target mRNA inhibition (A431, 0.25 µM) of 91% and a target mRNA inhibition (A431, 1 µM) of 95%.
“GGCATTCAGAATTTCC (sugars kkddddekekeddddd, PS)” gave a target mRNA inhibition (A431, 2 µM) of 93%.
“CGTGTTATATTTGATC (sugars kkkddddkekekdddd, PS)” gave a target mRNA inhibition (A431, 2 µM) of 82%.
Sequence “CACTTTACATGCACGA (sugars kkddddddddddkeke, PS)” has a target mRNA inhibition (A431, 0.0156 µM) of 16%, a target mRNA inhibition (A431, 0.0625 µM) of 35% and a target mRNA inhibition (A431, 0.25 µM) of 66%. For the same sequence, the target mRNA inhibition (A431, 1 µM) was 87%.
Work on “CTTTATACCAGTGTCT (sugars kkddddekekeddddd, PS)” yielded a target mRNA inhibition (A431, 0.0156 µM) of 29%, a target mRNA inhibition (A431, 0.04 µM) of 50% and a target mRNA inhibition (A431, 0.0625 µM) of 60%. For the same sequence, the target mRNA inhibition (A431, 0.25 µM) was 82%, the target mRNA inhibition (A431, 1 µM) was 95% and the target mRNA inhibition (A431, 2 µM) was 98%.
With GTGTGAGTTGGTAAGT (sugars k4 d9 k3, PS) the target mRNA inhibition (A431, 0.0625 µM) was 54%, the target mRNA inhibition (A431, 0.25 µM) was 85% and the target mRNA inhibition (A431, 1 µM) was 95%.
